# Results: article PMC10208570, “Peptidomimetic antibiotics disrupt the lipopolysaccharide transport bridge of drug-resistant Enterobacteriaceae” (Science Advances, 2023)
# Like-named read-outs stand apart in the source and are kept apart here. Where a SMILES comes first, the peptide text is derived from it. Bridges are numbered along the chain shown (N, C = ends). [ ]: non-standard residue; d: D form. Pen = CC(C)(S)[C@H](N)C(=O)O; dDab = NCC[C@@H](N)C(=O)O; Dab = NCC[C@H](N)C(=O)O
# How the values were obtained:
# [1] = system: E. coli ATCC 25922 (parent / WT); test: microbe, parasite or virus in culture; settings: for MIC: Escherichia coli
# Protocol: (§1) MIC assays [Clinical and Laboratory Standards Institute (CLSI) methodology] and serial passage studies were performed as described by Luther et al. ([6]). […] Resistant mutants were isolated, and their MIC values were determined and sent to Microbes NG (Birmingham, United Kingdom) for whole-genome sequencing and bioinformatic analysis.
# [2] = system: E. coli ATCC 25922 LptA Q62L mutant; test: microbe, parasite or virus in culture; settings: for MIC: Escherichia coli
# Protocol: as §1
# in vitro = type: cell-based; settings: human
# Protocol: (§2) The cytotoxicity of compounds was determined by determining the number of viable cells using the Sigma Cell Counting Kit-8 (WST-8). HeLa cells were incubated at 37°C and 5% CO2 for 24 hours, after which the medium was replaced with fresh medium containing dilutions of compounds. […]
# HeLa cells = test: in vitro; type: cell-based
# Protocol: as §2
# human red blood cells = test: Haemolysis; type: cell-based; settings: PBS-washed human red blood cells; 1 h at 200 mg/liter, 37°C; OD 540 nm; versus 100% lysis control 2.5% Triton X-100; biological replicates
# Protocol: To test their hemolytic potential, compounds were incubated in the presence of phosphate-buffered saline (PBS)–washed human red blood cells. After 1-hour incubation at 200 mg/liter and 37°C, the samples were centrifuged (3220g), the supernatants were diluted in Dulbecco’s PBS, and optical density at 540 nm was determined. The hemolysis induced by the compound was calculated versus a 100% lysis control prepared with 2.5% Triton X-100 (table S4A).
# [3] = system: K. pneumoniae 968733 (CST-R); test: MIC assay (CLSI); type: cell-based, Klebsiella pneumoniae
# Protocol: as §1
# [4] = system: Enterobacteriaceae (CS, Col-S) (n=22); type: cell-based; settings: CLSI microdilution; minimum and maximum MIC of the panel; carbapenem sensitive, colistin sensitive
# Protocol: as §1
# [5] = system: Escherichia coli ATCC 25922 LptA E84D mutant; test: microbe, parasite or virus in culture; settings: Escherichia coli, ATCC25922, read-out: MIC Escherichia coli ATCC 25922 LptA E84D (1x)
# Protocol: as §1
# [6] = system: Klebsiella pneumoniae NCTC 13443 YejM mutant; test: microbe, parasite or virus in culture; settings: Klebsiella pneumoniae, NCTC13443, read-out: MIC Klebsiella pneumoniae NCTC 13443 YejM (1x)
# Protocol: as §1
# [7] = system: K. pneumoniae ATCC 43816 (parent / WT); test: microbe, parasite or virus in culture; settings: Klebsiella pneumoniae, ATCC43816, read-out: MIC Klebsiella pneumoniae ATCC 43816 WT
# Protocol: as §1
# [8] = system: Klebsiella pneumoniae ATCC 43816 LptA L116Q mutant; test: microbe, parasite or virus in culture; settings: Klebsiella pneumoniae, ATCC43816, read-out: MIC Klebsiella pneumoniae ATCC 43816 LptA L116Q (1x)
# Protocol: as §1
# [9] = system: Klebsiella pneumoniae NCTC 13443 LptA I36S mutant; test: microbe, parasite or virus in culture; settings: Klebsiella pneumoniae, NCTC13443, read-out: MIC Klebsiella pneumoniae NCTC 13443 LptA I36S (2x)
# Protocol: as §1
# [10] = system: Klebsiella pneumoniae ATCC 43816 PglJ, PhnJ, ThiH mutant; test: microbe, parasite or virus in culture; settings: Klebsiella pneumoniae, ATCC43816, read-out: MIC Klebsiella pneumoniae ATCC 43816 PglJ, PhnJ, ThiH (1x)
# Protocol: as §1
# [11] = system: Klebsiella pneumoniae NCTC 13443 LpxC, LpxD mutant; test: microbe, parasite or virus in culture; settings: Klebsiella pneumoniae, NCTC13443, read-out: MIC Klebsiella pneumoniae NCTC 13443 LpxC, LpxD (1x)
# Protocol: as §1
# [12] = system: Escherichia coli ATCC 25922 KdsD mutant; test: microbe, parasite or virus in culture; settings: Escherichia coli, ATCC25922, read-out: MIC Escherichia coli ATCC 25922 KdsD (2x)
# Protocol: as §1
# [13] = system: K. pneumoniae NCTC 13443 (NDM-1) LptA Q62L mutant; test: microbe, parasite or virus in culture; settings: Klebsiella pneumoniae
# Protocol: as §1
# [14] = system: Klebsiella pneumoniae ATCC 43816 LapB mutant; test: microbe, parasite or virus in culture; settings: Klebsiella pneumoniae, ATCC43816, read-out: MIC Klebsiella pneumoniae ATCC 43816 LapB (1x)
# Protocol: as §1
# [15] = system: K. pneumoniae ATCC 43816 LptA Q62L mutant; test: microbe, parasite or virus in culture; settings: Klebsiella pneumoniae
# Protocol: as §1
# [16] = system: Klebsiella pneumoniae ATCC 43816 LptA I36S mutant; test: microbe, parasite or virus in culture; settings: Klebsiella pneumoniae, ATCC43816, read-out: MIC Klebsiella pneumoniae ATCC 43816 LptA I36S (1x)
# Protocol: as §1
# [17] = system: K. pneumoniae NCTC 13443 (NDM-1) (parent / WT); test: microbe, parasite or virus in culture; settings: Klebsiella pneumoniae
# Protocol: as §1
# [18] = system: Klebsiella pneumoniae ATCC 43816 LptA I36N mutant; test: microbe, parasite or virus in culture; settings: Klebsiella pneumoniae, ATCC43816, read-out: MIC Klebsiella pneumoniae ATCC 43816 LptA I36N (1x)
# Protocol: as §1
# E. coli ST131 (n=8) = test: MIC against isolate panel; type: cell-based, Escherichia coli; settings: CLSI microdilution; minimum and maximum MIC of the panel
# Protocol: as §1
# [19] = system: panel of 121 Enterobacteriaceae including CRE, MDR, and XDR isolates; test: organism not typed
# Protocol: as §1
structure (smiles),measurement,setting,value
CC[C@H](C)[C@H](NC(=O)[C@@H](NC(=O)[C@@H]1CCCN1C(=O)[C@@H](N)C(C)C)[C@@H](C)CC)C(=O)N[C@@H](Cc1ccc(O)cc1)C(=O)N[C@@H]1C(=O)N[C@@H](CC(N)=O)C(=O)N[C@@H](CCCNC(=N)N)C(=O)N[C@@H](CCN)C(=O)N[C@@H]([C@@H](C)O)C(=O)N[C@H](CCN)C(=O)N[C@@H](CCCCN)C(=O)N[C@H](C(=O)N[C@@H](CCN)C(=O)N[C@@H](CCCNC(=N)N)C(=O)N[C@@H](Cc2ccc(O)cc2)C(=O)O)CSSC1(C)C [Compound 3] (H-VPIIY[Pen]NR[Dab]T[dDab]KC[Dab]RY-OH; disulfide 6-13),MIC E. coli ATCC 25922 Parent,"[1]; CLSI method, parent strain",0.063 micrograms per milliliter
same,MIC E. coli ATCC 25922 Q62L mutant,"[2]; CLSI method, clone harboring LptA Q62L",1 micrograms per milliliter
same,IC50 at 48 h,in vitro,41 µM
same,IC50,HeLa cells,40 µM
same,Haemolysis % at 0.2 g/L,human red blood cells,0%
same,MIC K. pneumoniae 968733 (CST-R) Parent,"[3]; CLSI method, colistin-resistant strain",0.25 micrograms per milliliter
C[C@@H](O)[C@H]1C(=O)N2C(C(=O)O)=C(S[C@@H]3CN[C@H](C(=O)N(C)C)C3)[C@H](C)[C@H]12 [Meropenem],"MIC range Enterobacteriaceae (CS, Col-S) (n=22)",[4],≤0.06 to 0.5 µg/mL
same,MIC,[5],≤ 0.06 µg/mL
same,MIC,[6],> 64 µg/mL
same,MIC,[7],0.13 µg/mL
same,MIC,[8],≤ 0.06 µg/mL
same,MIC,"[1]; ATCC25922, read-out: MIC E. coli ATCC 25922 Parent",0.063 µg/mL
same,MIC,"[1]; ATCC25922, read-out: MIC Escherichia coli ATCC 25922 WT",≤ 0.06 µg/mL
same,MIC,[9],> 64 µg/mL
same,MIC,[10],0.13 µg/mL
same,MIC,[11],> 64 µg/mL
same,MIC,[12],0.13 µg/mL
same,MIC,"[13]; NCTC13443, read-out: MIC K. pneumoniae NCTC 13443 (NDM-1) Q62L mutant",> 8 µg/mL
same,MIC,"[13]; NCTC13443, read-out: MIC Klebsiella pneumoniae NCTC 13443 LptA Q62L (5x)",> 64 µg/mL
same,MIC,"[2]; ATCC25922, read-out: MIC E. coli ATCC 25922 Q62L mutant",0.063 µg/mL
same,MIC,"[2]; ATCC25922, read-out: MIC Escherichia coli ATCC 25922 LptA Q62L (7x)",≤ 0.06 µg/mL
same,MIC,[14],0.13 µg/mL
same,MIC,"[15]; ATCC43816, read-out: MIC K. pneumoniae ATCC 43816 Q62L mutant",0.063 µg/mL
same,MIC,"[15]; ATCC43816, read-out: MIC Klebsiella pneumoniae ATCC 43816 LptA Q62L (4x)",≤ 0.06 µg/mL
same,MIC,[16],≤ 0.06 µg/mL
same,MIC,"[17]; NCTC13443, read-out: MIC K. pneumoniae NCTC 13443 (NDM-1) Parent",> 8 µg/mL
same,MIC,"[17]; NCTC13443, read-out: MIC Klebsiella pneumoniae NCTC 13443 WT",> 64 µg/mL
same,MIC,[18],≤ 0.06 µg/mL
same,MIC range E. coli ST131 (n=8),E. coli ST131 (n=8),<=0.06-8 µg/mL
same,MIC50,[19]; read-out: MIC50 (n=121),> 8 µg/mL
same,MIC90,[19]; read-out: MIC90 (n=121),> 64 µg/mL
same,MIC,"[3]; Klebsiella pneumoniae, read-out: MIC K. pneumoniae 968733 (CST-R) Parent",0.031 µg/mL
